BindingDB's records for doi:10.7270/Q22J698B (NMMLSC, 2010)

Molecular target: Cell division control protein 42 homolog (Homo sapiens, UniProt P60953)
Experiment: activated mutant Cdc42 GTP-binding inhibitors, dose response, biochemical, multiplex bead flow cytometry, Bodipy-FL-GTP (AID 1333)

Sequence of Cell division control protein 42 homolog (P60953 whole entry): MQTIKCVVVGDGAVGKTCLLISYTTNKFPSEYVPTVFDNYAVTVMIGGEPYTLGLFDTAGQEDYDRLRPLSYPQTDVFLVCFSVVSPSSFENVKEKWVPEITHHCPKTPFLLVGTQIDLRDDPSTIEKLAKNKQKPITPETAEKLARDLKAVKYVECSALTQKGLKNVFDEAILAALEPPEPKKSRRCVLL

Question: For `CC1(C)Cc2c(sc(NC(=S)NC(=O)c3ccccc3)c2C(=O)O)CO1` [2-(benzoylcarbamothioylamino)-5,5-dimethyl-4,7-dihydrothieno[2,3-c]pyran-3-carboxylic acid], which EC50 is on record?
Answer: Its EC50 is 92 nM.
